This is an account of results in patent US20250090510A1, “eIF4G1-eIF1 INHIBITORS AND USE THEREOF” (YEDA RESEARCH AND DEVELOPMENT CO. LTD., priority 2022, published 2025).

One experiment deals with HEK293T cells. Kind of experiment: Puromycin labeling (puromycin-incorporation assay). Conditions: Homo sapiens, HEK-293T; 3 h treatment, puromycin 10 μg/ml 5 minutes; read-out: IC-50, nascent polypeptide puromycin labeling. In kind it is cell-based. The procedure:
FIGS. 3A-F: i14G1-10 and i14G1-12 inhibit mRNA translation and sensitize cell survival of eIF4G1 and eIF1 depleted cells. (3A) In-vitro translation using rabbit reticulocyte lysate which was pre-incubated with different concentrations of i14G1-10 or i14G1-12 for 10 minutes followed by the addition of capped firefly luciferase mRNA. After 90 minutes at 30° C., the luminescence signal was measured and the IC50 was calculated. The data represents mean±SEM of 6 independent repeats. (3B) HEK293T cells were treated with DMSO (vehicle control), and sub-cytotoxic concentrations of i14G1-10 (20 μM) and i14G1-12 (10 μM) for 3h. Cell lysates were then subjected to sucrose gradient sedimentation to obtain polysome profiles. (3C) HEK293T cells were treated with the indicated concentrations of i14G1-10 and i14G-12 for 3 h, followed by the addition of puromycin (10 μg/ml) for 5 minutes, after which cells were lysed and analyzed by western blot using an anti-puromycin antibody and anti-GAPDH antibody that serves as a loading control. […] The calculated IC-50 is shown. […] The calculated IC-50 is shown. (3E) The graphs represent cell viability of the indicated cell lines in the presence of increasing concentrations of i14G1-10 and i14G1, analyzed by Luminescent Cell Viability Assay. […]

The test system of experiment [1] is HEK293T cells with eIF4G1 knockdown. Kind of experiment: Puromycin labeling after control or eIF4G1 siRNA. Conditions: for IC50: Homo sapiens, HEK-293T, 48 h, 3 h treatment, read-out: IC-50, puromycin labeling. In kind it is cell-based, human. The procedure:
FIGS. 3A-F: i14G1-10 and i14G1-12 inhibit mRNA translation and sensitize cell survival of eIF4G1 and eIF1 depleted cells. (3A) In-vitro translation using rabbit reticulocyte lysate which was pre-incubated with different concentrations of i14G1-10 or i14G1-12 for 10 minutes followed by the addition of capped firefly luciferase mRNA. After 90 minutes at 30° C., the luminescence signal was measured and the IC50 was calculated. The data represents mean±SEM of 6 independent repeats. (3B) HEK293T cells were treated with DMSO (vehicle control), and sub-cytotoxic concentrations of i14G1-10 (20 μM) and i14G1-12 (10 μM) for 3h. Cell lysates were then subjected to sucrose gradient sedimentation to obtain polysome profiles. (3C) HEK293T cells were treated with the indicated concentrations of i14G1-10 and i14G-12 for 3 h, followed by the addition of puromycin (10 μg/ml) for 5 minutes, after which cells were lysed and analyzed by western blot using an anti-puromycin antibody and anti-GAPDH antibody that serves as a loading control. The graph represents the mean±SEM chemiluminescence signal intensity of puromycin labeling normalized to GAPDH of 3 independent experiments. The calculated IC-50 is shown. (3D) HEK293T cells were transfected with either control or eIF4G1 siRNA in the absence or presence of eIF4G1 expression plasmid. As the eIF4G1 siRNA pool is directed against the 3′UTR, which is absent from the eIF4G1 expression plasmid, the exogenous eIF4G1 is resistant to the siRNA. 48 h after transfection, cells were treated with the indicated concentrations of i14G1-10 and i14G-12 for 3 h, followed by a 5 minutes puromycin pulse as described in 3C. The graph represents the mean±SEM chemiluminescence signal intensity of puromycin labeling normalized to GAPDH of 3 independent experiments. The calculated IC-50 is shown. (3E) The graphs represent cell viability of the indicated cell lines in the presence of increasing concentrations of i14G1-10 and i14G1, analyzed by Luminescent Cell Viability Assay. […]

Read-outs that look alike come from different tables or passages of the source.

With `O=C(/C=C/Sc1ccc(C(F)(F)F)cn1)c1ccccc1` [i14G1-10], in the experiment on HEK293T cells, the IC50 turned out to be 20.4 µM. For the same compound, the “inhibition of translation upon depletion of eIF4G1” value in experiment [1] (eIF4G1 siRNA vs control siRNA) is recorded as “enhanced”.
Consider `Cn1ccnc1S/C(=C/C=C(C#N)C#N)c1ccc(Cl)cc1` [i14G1-12], for which the IC50 in the experiment on HEK293T cells was found to be 4.96 µM; in experiment [1] (control siRNA), 5.65 µM; in experiment [1] (eIF4G1 siRNA knockdown) it was 80 µM.
